The text below walks through data of PubChem BioAssay (NCI).

Some test systems named below: COLO 205 colon; A549 NSCLC; K-562 leukemia; HCT-15 colon; MDA-MB-231 breast; NCI/ADR-RES ovarian; BT-549 breast; HT29 colon; T-47D breast; DU-145 prostate; OVCAR-8 ovarian; MOLT-4 leukemia; 786-0 renal; NCI-H460 lung; SNB-75 CNS; UO-31 renal; SF-539 CNS; SK-OV-3 ovarian; KM12 colon.
Experiment in all cases: growth of human tumour cells (NCI), 48 h

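Cultured in 96-well plates, cells were exposed to test compound for 48 hours across five concentrations. TGI: total growth inhibition.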

With `Oc1c(Nc2ccccc2)cc2c3c1N=NC=3CCN=2`, the TGI in the assay on COLO 205 colon, in the assay with A549 NSCLC, in the assay with K-562 leukemia, in the assay with HCT-15 colon, in the assay with MDA-MB-231 breast and in the assay on NCI/ADR-RES ovarian was over 100 µM throughout. The TGI in the assay with BT-549 breast was over 100 µM; in the assay on HT29 colon it was over 100 µM; in the assay with T-47D breast, over 100 µM; in the assay on DU-145 prostate, over 100 µM; with OVCAR-8 ovarian, 59.8 µM; in the assay on MOLT-4 leukemia, 87.3 µM. In addition, the TGI in the assay on 786-0 renal, in the assay with NCI-H460 lung, in the assay with SNB-75 CNS, in the assay with UO-31 renal, in the assay with SF-539 CNS and in the assay on SK-OV-3 ovarian was over 100 µM in each case. The compound also displayed a TGI in the assay with KM12 colon of over 100 µM.

As for `CCOc1ccc(-n2c(=O)c3nn4c(=O)n(-c5ccc(OCC)cc5)c(=O)c4nn3c2=O)cc1`, the TGI in the assay on COLO 205 colon, in the assay on A549 NSCLC, with K-562 leukemia, in the assay on HCT-15 colon, in the assay with MDA-MB-231 breast and with NCI/ADR-RES ovarian was over 100 µM each time. Also, the TGI with BT-549 breast, in the assay on HT29 colon, in the assay on T-47D breast, with DU-145 prostate, in the assay with OVCAR-8 ovarian and in the assay on MOLT-4 leukemia was over 100 µM throughout. The TGI in the assay on 786-0 renal is over 100 µM; in the assay with NCI-H460 lung it was over 100 µM; in the assay with SNB-75 CNS, 75.7 µM; in the assay with UO-31 renal, over 100 µM; with SF-539 CNS, over 100 µM; in the assay on SK-OV-3 ovarian, over 100 µM. Also, the TGI in the assay on KM12 colon was over 100 µM.

Take `Cc1cc(N(C)C)ccc1N=Nc1ccc2ncccc2c1`: the TGI in the assay on COLO 205 colon, in the assay with A549 NSCLC, in the assay with K-562 leukemia, with HCT-15 colon, in the assay on MDA-MB-231 breast and in the assay with NCI/ADR-RES ovarian was over 100 µM each time. Further, the TGI in the assay on BT-549 breast, in the assay on HT29 colon, in the assay on T-47D breast, in the assay with DU-145 prostate, with OVCAR-8 ovarian and in the assay with MOLT-4 leukemia was over 100 µM in each case. In addition, the TGI in the assay with 786-0 renal, in the assay with NCI-H460 lung, with SNB-75 CNS, in the assay on UO-31 renal, with SF-539 CNS and in the assay on SK-OV-3 ovarian was over 100 µM each time. In addition, the TGI with KM12 colon is over 100 µM.

Consider `Cc1ccc([N+](=O)[O-])cc1S(=O)(=O)Nc1ccc(C(=O)/C=C/c2ccccc2)cc1`, for which the TGI in the assay with COLO 205 colon was 44.9 µM; in the assay on A549 NSCLC it was over 100 µM; with K-562 leukemia it was 29.7 µM; with HCT-15 colon, 48.7 µM; in the assay with MDA-MB-231 breast, 32.3 µM; in the assay on NCI/ADR-RES ovarian, 66.2 µM. For the same compound, the TGI with BT-549 breast was 33.7 µM; in the assay with HT29 colon, 57.6 µM; in the assay with T-47D breast it was 44.6 µM; in the assay with DU-145 prostate, 29.5 µM; with OVCAR-8 ovarian it was 50.2 µM; in the assay on MOLT-4 leukemia, 23 µM. Also, the TGI with 786-0 renal is 33.1 µM; in the assay with NCI-H460 lung it was 37.8 µM; with SNB-75 CNS, 32.3 µM; with UO-31 renal, 40.7 µM; with SF-539 CNS it was over 100 µM; in the assay with SK-OV-3 ovarian, 95 µM. Also, the TGI in the assay on KM12 colon turned out to be 32.2 µM.

Consider `Brc1ccc2[nH]cc([C@@H]3CN[C@@H](c4c[nH]c5ccc(Br)cc45)CN3)c2c1`, for which the TGI with COLO 205 colon was found to be 3.69 µM; with A549 NSCLC, 19.4 µM; in the assay with K-562 leukemia it was 3.74 µM; in the assay on HCT-15 colon, 24.8 µM; in the assay with MDA-MB-231 breast it was 14.2 µM; in the assay on NCI/ADR-RES ovarian, 25.2 µM. The TGI with BT-549 breast stood at 30.8 µM; with HT29 colon it was 15.5 µM; in the assay on T-47D breast, 29.2 µM; with DU-145 prostate, 12.6 µM; with OVCAR-8 ovarian, 13.8 µM; in the assay on MOLT-4 leukemia, 4.51 µM. The TGI in the assay on 786-0 renal was found to be 14.3 µM; with NCI-H460 lung, 24.4 µM; with SNB-75 CNS, 12.5 µM; with UO-31 renal, 9.47 µM; with SF-539 CNS it was 24.9 µM; with SK-OV-3 ovarian, 25.7 µM. Moreover, in the assay with KM12 colon, the TGI amounted to 7.06 µM.

With `O=C(c1ccccc1)c1ccc(N2C(=O)/C(=C/c3cccc([N+](=O)[O-])c3)N=C2c2ccccc2)c(N2C(=O)/C(=C/c3cccc([N+](=O)[O-])c3)N=C2c2ccccc2)c1`, the TGI with COLO 205 colon is 11.1 µM; with A549 NSCLC, over 100 µM; in the assay on K-562 leukemia it was over 100 µM; in the assay on HCT-15 colon, over 100 µM; in the assay on MDA-MB-231 breast, over 100 µM; with NCI/ADR-RES ovarian, over 100 µM. The TGI with BT-549 breast, in the assay with HT29 colon, with T-47D breast, in the assay on DU-145 prostate, in the assay with OVCAR-8 ovarian and in the assay with MOLT-4 leukemia was over 100 µM in each case. Further, the TGI with 786-0 renal was over 100 µM; with NCI-H460 lung, over 100 µM; in the assay on SNB-75 CNS, 81.6 µM; in the assay with UO-31 renal it was over 100 µM; with SF-539 CNS it was over 100 µM; in the assay with SK-OV-3 ovarian it was over 100 µM. This compound gave a TGI with KM12 colon of over 100 µM.

For `CCC1CN2CCc3cc(OC)c(OC)cc3C2CC1CC1c2cc(OC)c(OC)cc2CCN1C(=O)C(Cc1c[nH]c2ccccc12)NC(=O)OC(C)(C)C` (stereo not drawn), the TGI was 2.95 µM in the assay on COLO 205 colon; 7.93 µM in the assay on A549 NSCLC; over 33.9 µM in the assay with K-562 leukemia; 7.35 µM in the assay on HCT-15 colon; 3.66 µM with MDA-MB-231 breast; 3.02 µM in the assay on NCI/ADR-RES ovarian. The TGI with BT-549 breast is 7.83 µM; in the assay on HT29 colon, 4.01 µM; in the assay with T-47D breast it was 4.16 µM; in the assay with DU-145 prostate it was 4.75 µM; with OVCAR-8 ovarian, 8.58 µM; in the assay with MOLT-4 leukemia it was 8.07 µM. Also, the TGI in the assay on 786-0 renal was found to be 6.74 µM; in the assay with NCI-H460 lung it was 7.15 µM; with SNB-75 CNS, 10.8 µM; in the assay on UO-31 renal, 7.77 µM; in the assay with SF-539 CNS it was 4.43 µM; in the assay with SK-OV-3 ovarian, 9.48 µM. Further, the TGI with KM12 colon amounted to 11 µM.
